According to patent US11116757B2 (priority 2015, dated 2021):

Biological target: DCN1-UBC12 interaction (Homo sapiens (Human), UniProt Q96GG9)
Experiment: biochemical
Type: binding
Conditions: TR-FRET IC50

DCN1-UBC12 interaction, sequence (Q96GG9 60-248 limits assumed): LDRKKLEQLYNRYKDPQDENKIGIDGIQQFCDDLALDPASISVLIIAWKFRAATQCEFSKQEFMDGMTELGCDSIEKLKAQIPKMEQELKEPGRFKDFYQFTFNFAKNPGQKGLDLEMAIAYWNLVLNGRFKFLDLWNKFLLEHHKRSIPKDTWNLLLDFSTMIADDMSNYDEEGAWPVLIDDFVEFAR

Row | Molecule | IC50 [µM]
1 | CCCC(C)N1CCC(N(Cc2ccccc2)C(=O)Nc2ccc(Cl)cc2)CC1 (stereo not shown) [A13] | 0.083

Same assay, conditions: Table 4, commercial compounds; read-out: TR-FRET IC50

Row | Molecule | IC50 [µM]
2 | Cc1ccc(C(=O)N2CCC(C(=O)Nc3ccc(Cl)c(C(F)(F)F)c3)CC2)cc1 [C26] | > 67.6
3 | COc1cc(C(=O)N2CCC(C(=O)Nc3ccc(Cl)cc3)CC2)cc(OC)c1OC [C23] | > 67.6
4 | CCOc1ccccc1NC(=O)C1CCN(C(=O)c2ccc(OC)cc2)CC1 [C47] | > 67.6
5 | O=C(Nc1cccc(F)c1)C1CCN(C(=O)c2cnn(-c3ccccc3)c2-n2cccc2)CC1 [C50] | > 67.6
6 | Cc1ccc(NC(=O)C2CCN(C(=O)c3ccc(Cl)cc3)CC2)cc1Cl [C6] | 38.1
7 | O=C(Nc1ccccc1Br)C1CCN(C(=O)c2ccccc2Cl)CC1 [C17] | > 67.6
8 | CCc1cccc(NC(=O)C2CCN(C(=O)N3CC(CC)Oc4ccccc43)CC2)c1 (stereo not shown) [C56] | > 67.6
9 | CCc1cccc(NC(=O)C2CCN(C(C)=O)CC2)c1 [C32] | > 67.6
10 | COc1ccc(C(=O)N2CCC(C(=O)Nc3cccc(C)c3C)CC2)cc1 [C19] | > 67.6
11 | O=C(Nc1cccc(Br)c1)C1CCN(C(=O)c2cccc(Cl)c2)CC1 [C3] | 22.4
12 | COc1cccc(NC(=O)C2CCN(C(=O)c3ccc(OC)c4ccccc34)CC2)c1 [C59] | > 67.6

Same assay, conditions: Table 6, commercial compounds; read-out: TR-FRET IC50

Row | Molecule | IC50 [µM]
13 | CCN(CC)CCNC(=O)c1cnn(-c2nccc(-c3cccs3)n2)c1C1CC1 [E36] | > 67.6
14 | CC(C)c1c(C(=O)N2CCN(C(C)C)CC2)cnn1-c1nccc(-c2cccs2)n1 [E62] | > 77
15 | CCN(CC)CCN(CC)C(=O)c1cnn(-c2nccc(-c3cccs3)n2)c1C1CC1 [E2] | 4.53
16 | CCN1CCN(C(=O)c2cnn(-c3nccc(-c4cccs4)n3)c2C2CC2)CC1 [E14] | 29.9
17 | Cc1c(C(=O)N(C)CC(C)C)cnn1-c1nccc(-c2cccs2)n1 [E6] | 18.8
18 | CSCCCNC(=O)c1cnn(-c2nccc(-c3cccs3)n2)c1C [E51] | > 67.6
19 | Cc1cnc(-n2ncc(C(=O)N3CCN(C)CC3)c2C2CC2)nc1-c1cccs1 [E55] | > 67.6
20 | CCN(CC)C(=O)c1cnn(-c2ncc(C)c(-c3cccs3)n2)c1C [E57] | > 67.6
21 | CCOC(=O)N1CCN(C(=O)c2cnn(-c3ncc(C)c(-c4cccs4)n3)c2C)CC1 [E12] | 28.3
22 | CCN(CC)CCN(CC)C(=O)c1cnn(-c2nccc(-c3cccs3)n2)c1C(C)C [E5] | 17.4

Same assay, conditions: Table 7, commercial compounds; read-out: TR-FRET IC50

Row | Molecule | IC50 [µM]
23 | CSc1ccc(C2c3c(C)nn(C)c3NC(=O)C2NC(=O)c2cccc(C)c2)cc1F (stereo not shown) [F7] | 41.5
24 | Cc1cccc(C(=O)NC2C(=O)Nc3c(c(C)nn3C)C2c2cccc(C)c2)c1 (stereo not shown) [F32] | > 67.6
25 | Cc1cccc(C(=O)NC2C(=O)Nc3c(c(C)nn3C)C2c2ccc(C(C)(C)C)cc2)c1 (stereo not shown) [F13] | > 67.6
26 | Cc1cccc(C2c3c(C)nn(C)c3NC(=O)C2NC(=O)c2ccccc2)c1 (stereo not shown) [F33] | > 80.3
27 | COc1ccc(C(=O)NC2C(=O)Nc3c(c(C)nn3C)C2c2ccc(Cl)c(Cl)c2)cc1OC (stereo not shown) [F30] | > 67.6
28 | COc1ccc(C2c3c(C)nn(C)c3NC(=O)C2NC(=O)c2ccccc2)cc1OC (stereo not shown) [F29] | > 67.6

Same assay, conditions: read-out: TR-FRET IC50

Row | Molecule | IC50 [µM]
29 | CCCC(C)N1CCC(N(Cc2ccccc2)C(=O)Nc2cccc(Cl)c2F)CC1 (stereo not shown) [A62] | 0.385
30 | CCCC(C)N1CCC(N(Cc2ccccc2)C(=O)Nc2ccc(OC)cc2F)CC1 (stereo not shown) [A290] | > 74
31 | 1-(1-(2-Methylbenzyl)Piperidin-4-yl)-3-(3-(Trifluoromethyl)Phenyl)Urea [A137] | 3.8
32 | CCCC(C)N1CCC(N(Cc2ccccc2)C(=O)Nc2ccc(Cl)c(C(F)(F)F)c2)CC1 (stereo not shown) [A64] | 0.414
33 | CC(=O)c1cccc(NC(=O)NC2CCN(Cc3ccccc3)CC2)c1 [B102] | > 70.6
34 | CCCN1CCC(NC(=O)Nc2ccc(Cl)c(Cl)c2)CC1 [B56] | > 67.6
35 | CCCC(C)N1CCC(N(Cc2cccnc2)C(=O)Nc2ccc(F)c(C(F)(F)F)c2)CC1 (stereo not shown) [A55] | 0.303
36 | CCCCN1C(C)CC(N(Cc2ccccc2)C(=O)Nc2cccc(C(F)(F)F)c2)CC1C (stereo not shown) [A71] | 0.589
37 | CCCC1CCC(N(Cc2ccccc2)C(=O)c2cccc(C(F)(F)F)c2)CC1 (stereo not shown) [A193] | < 0.0029
38 | Cc1cccc(CN2CCC(NC(=O)Nc3cccc(C(F)(F)F)c3)CC2)c1 [A155, 1-(1-(3-Methylbenzyl)Piperidin-4-yl)-3-(3-(Trifluoromethyl)Phenyl)Urea] | 6.77
39 | CCCC(C)N1CCC(N(Cc2ccccc2)C(=O)Nc2ccc(Oc3ccncc3)cc2)CC1 (stereo not shown) [A69] | 0.567
40 | CCn1cnc(NC(=O)NC2CCN(Cc3ccccc3)CC2)n1 [B47] | > 67
41 | CCCCN1CCC(N(Cc2ccccc2)C(=O)Nc2ccc(C)c(Cl)c2)CC1 [A28] | 0.166
42 | CC(=O)N1CCC(N(Cc2ccco2)C(=O)Nc2ccc(Br)c(C)c2)CC1 [B18] | 64.1
43 | COc1ccc(CN(C(=O)Nc2ccccc2C(F)(F)F)C2CCN(C(C)=O)CC2)cc1 [B85] | > 67.6
44 | Cc1ccc(CN(C(=O)Nc2cc(F)ccc2F)C2CCN(Cc3ccccc3)CC2)o1 [B93] | > 67.6
45 | CCCCN1CCC(CC(=O)OC)(NC(=O)Nc2cccc(C(F)(F)F)c2)CC1 [A254] | > 60.1
46 | CCCC(C)N1CCC(N(Cc2ccccc2)C(=O)Nc2ccccc2I)CC1 (stereo not shown) [A285] | > 72.4
47 | CCc1ccc(NC(=O)NC2CCN(C(C)C)CC2)cc1 [B62] | > 67.6
48 | CCOc1ccccc1NC(=O)N(C(C)C)C1CCN(C(C)=O)CC1 [B67] | > 67.6

Row | Molecule | IC50 [µM]
49 | O=C(Nc1cccc2ccccc12)NC1CCN(Cc2ccccc2)CC1 [B39] | > 61.8
50 | COc1cc(CN2CCC(NC(=O)Nc3cccc(C)c3)CC2)cc(OC)c1OC [B12] | 29.3
51 | CCCC(C)N1CCC(N(Cc2ccccc2)C(=O)Nc2ccc(Oc3ccccc3)c(C(F)(F)F)c2)CC1 (stereo not shown) [A75] | 0.731
52 | CCCN1CCC(NC(=O)Nc2ccc(C)c(Cl)c2)CC1 [B34] | > 55.5
53 | O=C(c1ccc(Cl)c(Cl)c1)N1CCC(c2nc3ccccc3s2)CC1 [D7] | 19.5
54 | CCCC(C)N1CCC(N(Cc2ccccc2)C(=O)Nc2c(F)cc(F)cc2F)CC1 (stereo not shown) [A272] | > 67.5
55 | CC(=O)N1CCC(N(Cc2ccco2)C(=O)Nc2ccccc2C(F)(F)F)CC1 [B76] | > 67.6
56 | CCc1ccccc1NC(=O)N(Cc1ccco1)C1CCN(C(C)=O)CC1 [B74] | > 67.6
57 | CCCC(C)N1CCC(N(Cc2ccc3c(c2)OCO3)C(=O)Nc2ccc(Cl)c(Cl)c2)CC1 (stereo not shown) [A9] | 0.0788
58 | C=CC(=O)NCc1ccccc1CN(C(=O)Nc1cccc(C(F)(F)F)c1)C1CCN(C(C)CCC)CC1 (stereo not shown) [drawing 846] | < 0.01
59 | C#CCCCN1CCC(N(Cc2ccccc2NC(=O)C=C)C(=O)Nc2ccc(Cl)c(Cl)c2)CC1 [A304] | > 9.74
60 | O=C(Nc1cc(F)cc(C(F)(F)F)c1)N(Cc1ccccc1)C1CCN(CCCc2ccccc2)CC1 [A133] | 3.21
61 | CCCCN1CCC(N(Cc2ccccc2)C(=O)Nc2ccc(OC)c(Cl)c2)CC1 [A287] | > 72.5
62 | CCCC(C)N1CCC(N(Cc2ccccc2)C(=O)Nc2nc3c(OC)cccc3s2)CC1 (stereo not shown) [A301] | > 86.1
63 | CCCC(C)N1CCC(N(Cc2ccc3c(c2)OCO3)C(=O)Nc2cc(F)cc(C(F)(F)F)c2)CC1 (stereo not shown) [A51] | 0.273
64 | C#CCCCN1CCC(N(Cc2ccccc2NC(=O)CCl)C(=O)Nc2ccc(Cl)c(Cl)c2)CC1 [A252] | > 6.46
65 | CC(=O)N1CCC(N(Cc2ccco2)C(=O)Nc2cccc(C(F)(F)F)c2)CC1 [B10] | 20.2
66 | CC(=O)N1CCC(N(Cc2ccco2)C(=O)Nc2ccccc2Br)CC1 [B71] | > 67.6
67 | CC(CCN1CCC(N(Cc2ccccc2)C(=O)Nc2cc(F)cc(C(F)(F)F)c2)CC1)c1ccccc1 (stereo not shown) [A127] | 2.23
68 | CCCC(C)N1CCC(N(Cc2ccccc2)C(=O)Nc2ccc(CC)cc2)CC1 (stereo not shown) [A56] | 0.315

Row | Molecule | IC50 [µM]
69 | CCCCN(C(=O)Nc1cccc(C(F)(F)F)c1)C1CCN(CCC)CC1 [A96, 1-Butyl-1-(1-Propylpiperidin-4-yl)-3-(3-(Trifluoromethyl)Phenyl)Urea] | 1.33
70 | O=C(CN1CCN(c2cccc(Cl)c2)CC1)Nc1cccc(C(F)(F)F)c1 [B31] | > 54.3
71 | CCCC(C)N1CCC(N(Cc2ccccc2)C(=O)Nc2ccc(OC)cc2OC)CC1 (stereo not shown) [A196] | > 11.8
72 | O=C(Nc1cccc(C(F)(F)F)c1)NC1CCN(Cc2ccccc2F)CC1 [A238, 1-(1-(2-Fluorobenzyl)Piperidin-4-yl)-3-(3-(Trifluoromethyl)Phenyl)Urea] | > 49.4
73 | Cn1ccc2cc(CN3CCC(N(Cc4ccccc4)C(=O)Nc4cc(F)cc(C(F)(F)F)c4)CC3)ccc21 [A205] | > 20.8
74 | O=C(Nc1ccc(F)cc1)NC1CCN(Cc2ccccc2)CC1 [B43] | > 64.5
75 | O=C(Nc1ccc(CN2CCOCC2)cc1)Nc1cccc(C(F)(F)F)c1 [B108] | > 72.8
76 | CCN1CCC(N(Cc2ccc(F)cc2)C(=O)Nc2ccccc2Cl)CC1 [B97] | > 67.6
77 | CCCC(C)N1CCC(N(CCCNC(=O)CCl)C(=O)Nc2cccc(C(F)(F)F)c2)CC1 (stereo not shown) [A245] | > 53.9
78 | CCCC(C)N1CCC(N(Cc2ccccc2)C(=O)Nc2ccc(CC#N)cc2)CC1 (stereo not shown) [A176] | 13.7
79 | Cc1cccc(CN(C(=O)Nc2cccc(C(F)(F)F)c2)C2CCN(Cc3ccccc3)CC2)n1 [B5] | 5.64
80 | Cc1nc(NC(=O)NC2CCN(Cc3ccccc3)CC2)nn1C [B25] | > 16.3
81 | CCCC(C)N1CCC(N(Cc2ccccc2)C(=O)Nc2ccc(-c3ccc(C(=O)OC)cc3)cc2)CC1 (stereo not shown) [A278] | > 69.1
82 | CCCC(C)N1CCC(N(Cc2ccccc2)C(=O)Nc2cc(F)cc(S(F)(F)(F)(F)F)c2)CC1 (stereo not shown) [A48] | 0.26
83 | CCCC(C)N1CCC(N(Cc2ccccc2)C(=O)Nc2cccc(Cl)c2Cl)CC1 (stereo not shown) [A103] | 1.74
84 | CCCCCCc1ccc(NC(=O)N(Cc2ccccc2)C2CCN(C(C)CCC)CC2)cc1 (stereo not shown) [A19] | 0.116
85 | CCCC(C)N1CCC(N(Cc2ccccc2)C(=O)Nc2ccc(Br)cc2)CC1 (stereo not shown) [A5] | 0.0559
86 | C=CC(=O)NCc1ccccc1CN(C(=O)Nc1cccc(C(F)(F)F)c1)C1CCN(C(C)CCC)CC1 (stereo not shown) [A239] | > 51.2
87 | CCCC(C)N1CCC(N(Cc2ccccc2)C(=O)Nc2ccc(OC(F)(F)F)cc2)CC1 (stereo not shown) [A32] | 0.191
88 | O=C(Nc1cc(F)cc(C(F)(F)F)c1)N(Cc1ccccc1)C1CCN(Cc2cnccn2)CC1 [A226] | > 26.6
